Data: patent publication EP3689361A1, “APPLICATION OF CRANBERRY OR EXTRACT THEREOF IN PREPARATION OF MEDICATIONS OR HEALTH-CARE FOOD FOR TREATING, DELAYING OR ALLEVIATING AGES-RELATED DISEASES” (BY-Health Co., Ltd., priority 2018, dated 2020)

Test system: AGEs production (BSA + Methylglyoxal)
Test: Inhibition of AGEs production: co-incubation with BSA and MGO, fluorescence read-out
Type: biochemical
Conditions: Compound concentration 1mg/mL
Method: Bovine serum albumin (BSA) can interact with Methylglyoxal (MGO) to produce AGEs. The compound to be tested was co-incubated with BSA and MGO, and the level of the AGEs production was determined through detecting change of fluorescence value in the system, to thereby evaluate whether or not the compound had inhibitory effect on the AGEs production. […]
With reference to the method of Test Example 1, the inhibitory effect of the AGEs inhibitory compositions of Examples 1-3 on AGEs production was examined. The test results were as follows: Table 13 Inhibitory effect of the AGEs inhibitory compositions on AGEs production

Compound: N=C(N)NN [Aminoguanidine]
- AGEs production inhibition rate % (Table 1, bilberry extracts with different anthocyanin contents): 101.1%
- AGEs production inhibition rate % (Table 9, 7 samples): 101.1%

Compound: Cc1cc2nc3c(=O)[nH]c(=O)nc-3n(C[C@H](O)[C@H](O)[C@H](O)CO)c2cc1C [Vitamin B2]
- AGEs production inhibition rate % (Table 9, 7 samples): 94.3%

Compound: Cc1ncc(CO)c(CO)c1O.Cl [Vitamin B6]
- AGEs production inhibition rate % (Table 9, 7 samples): 77.6%

Compound: Cc1ncc(C[n+]2csc(CCO)c2C)c(N)n1 [Vitamin B1]
- AGEs production inhibition rate % (Table 9, 7 samples): 87.3%
